# In US7271170B2, “Imidazo-pyrimidines and triazolo-pyrimidines: benzodiazepine receptor ligands” (Neurogen Corporation, priority 2003, dated 2007):
# Target: benzodiazepine site of the GABAA receptor
# Test: Ligand binding assay of Example 6 (3H-Ro15-1788 competition, purified rat cortical membranes)
# Details: ligand binding assay of Example 6; Table 5 Ki
row,Compound,Ki [nM]
1,"CCCc1c(Cn2ccnc2-c2cccc(C#N)n2)ncn2nc(COC)nc12 [Compound 253, 6-(1-{[2-(methoxymethyl)-8-propyl[1,2,4]triazolo[1,5-c]pyrimidin-7-yl]methyl}-1H-imidazol-2-yl)pyridine-2-carbonitrile]",< 1000
2,"CCCc1c(Cn2ccnc2-c2ncccc2F)ncn2nc(C3CCCO3)nc12 (centres unmarked) [Compound 254, 7-{[2-(3-fluoropyridin-2-yl)-1H-imidazol-1-yl]methyl}-8-propyl-2-(tetrahydrofuran-2-yl)[1,2,4]triazolo[1,5-c]pyrimidine]",< 1000
3,"CCCc1c(Cn2ccnc2-c2ncccc2F)ncn2nc(COCC(F)(F)F)nc12 [Compound 255, 7-{[2-(3-fluoropyridin-2-yl)-1H-imidazol-1-yl]methyl}-8-propyl-2-[(2,2,2-trifluoroethoxy)methyl][1,2,4]triazolo[1,5-c]pyrimidine]",< 1000
4,"CCCc1c(Cn2ccnc2-c2ncccc2F)ncn2nc(Cl)nc12 [Compound 256, 2-chloro-7-{[2-(3-fluoropyridin-2-yl)-1H-imidazol-1-yl]methyl}-8-propyl[1,2,4]triazolo[1,5-c]pyrimidine]",< 1000
5,"CCCc1c(Cn2ccnc2-c2ncccc2F)ncn2nc(CC(F)(F)F)nc12 [Compound 257, 7-{[2-(3-fluoropyridin-2-yl)-1H-imidazol-1-yl]methyl}-8-propyl-2-(2,2,2-trifluoroethyl)[1,2,4]triazolo[1,5-c]pyrimidine]",< 1000
6,"CCCc1c(Cn2ccnc2-c2ncccc2F)ncn2nc(-c3nccs3)nc12 [Compound 258, 7-{[2-(3-fluoropyridin-2-yl)-1H-imidazol-1-yl]methyl}-8-propyl-2-(1,3-thiazol-2-yl)[1,2,4]triazolo[1,5-c]pyrimidine]",< 1000
7,"CCCc1c(Cn2ccnc2-c2ncccc2F)ncn2nc(N(CCC)CCC)nc12 [Compound 259, 7-{[2-(3-fluoropyridin-2-yl)-1H-imidazol-1-yl]methyl}-N,N,8-tripropyl[1,2,4]triazolo[1,5-c]pyrimidin-2-amine]",< 1000
8,"CCCc1c(Cn2ccnc2-c2cccc(C#N)n2)ncn2nc(COCC)nc12 [Compound 260, 6-(1-{[2-(ethoxymethyl)-8-propyl[1,2,4]triazolo[1,5-c]pyrimidin-7-yl]methyl}-1H-imidazol-2-yl)pyridine-2-carbonitrile]",< 1000
9,"CCCc1c(Cn2ccnc2-c2ncccc2F)ncn2nc(COCC)nc12 [Compound 261, 2-(ethoxymethyl)-7-{[2-(3-fluoropyridin-2-yl)-1H-imidazol-1-yl]methyl}-8-propyl[1,2,4]triazolo[1,5-c]pyrimidine]",< 1000
10,"CCCc1c(Cn2ccnc2-c2cccc(C#N)n2)ncn2nc(C)nc12 [Compound 262, 6-{1-[(2-methyl-8-propyl[1,2,4]triazolo[1,5-c]pyrimidin-7-yl]methyl]-1H-imidazol-2-yl}pyridine-2-carbonitrile]",< 1000
11,"CCCc1c(Cn2ccnc2-c2ncccc2F)ncn2nc(COC(C)C)nc12 [Compound 263, 7-{[2-(3-fluoropyridin-2-yl)-1H-imidazol-1-yl]methyl}-2-(isopropoxymethyl)-8-propyl[1,2,4]triazolo[1,5-c]pyrimidine]",< 1000
12,"CCCc1c(Cn2ccnc2-c2cccc(C#N)n2)ncn2nc(COC(C)C)nc12 [Compound 264, 6-(1-{[2-(isopropoxymethyl)-8-propyl[1,2,4]triazolo[1,5-c]pyrimidin-7-yl]methyl}-1H-imidazol-2-yl)pyridine-2-carbonitrile]",< 1000
13,"CCCc1c(Cn2ccnc2-c2ncccc2F)ncn2nc(COC3CCCC3)nc12 [Compound 265, 2-[(cyclopentyloxy)methyl]-7-{[2-(3-fluoropyridin-2-yl)-1H-imidazol-1-yl]methyl}-8-propyl[1,2,4]triazolo[1,5-c]pyrimidine]",< 1000

# Next, values leading:
row,Ki [nM],Compound
1,< 1000,"CCc1c(Cn2ccnc2-c2ncccc2F)ncn2nc(C)nc12 [Compound 244, 8-ethyl-7-{[2-(3-fluoropyridin-2-yl)-1H-imidazol-1-yl]methyl}-2-methyl[1,2,4]triazolo[1,5-c]pyrimidine]"
2,< 1000,"CCOc1c(Cn2ccnc2-c2ncccc2F)ncn2ncnc12 [Compound 245, 8-ethoxy-7-{[2-(3-fluoropyridin-2-yl)-1H-imidazol-1-yl]methyl}[1,2,4]triazolo[1,5-c]pyrimidine]"
3,< 1000,"CCCc1c(Cn2ccnc2-c2ncccc2F)ncn2nc(OC)nc12 [Compound 246, 7-{[2-(3-fluoropyridin-2-yl)-1H-imidazol-1-yl]methyl}-2-methoxy-8-propyl[1,2,4]triazolo[1,5-c]pyrimidine]"
4,< 1000,"CCCc1c(Cn2ccnc2-c2ncccc2F)ncn2nc(OCC)nc12 [Compound 247, 2-ethoxy-7-{[2-(3-fluoropyridin-2-yl)-1H-imidazol-1-yl]methyl}-8-propyl[1,2,4]triazolo[1,5-c]pyrimidine]"
5,< 1000,"CCCc1c(Cn2ccnc2-c2ncccc2F)ncn2nc(N)nc12 [Compound 248, 7-{[2-(3-fluoropyridin-2-yl)-1H-imidazol-1-yl]methyl}-8-propyl[1,2,4]triazolo[1,5-c]pyrimidin-2-amine]"
6,< 1000,"CCCc1c(Cn2ccnc2-c2ncccc2F)ncn2nc(C(C)(C)O)nc12 [Compound 249, 2-(7-{[2-(3-fluoropyridin-2-yl)-1H-imidazol-1-yl]methyl}-8-propyl[1,2,4]triazolo[1,5-c]pyrimidin-2-yl)propan-2-ol]"
7,< 1000,"CCCc1c(Cn2ccnc2-c2cccc(F)n2)ncn2nc(COCC)nc12 [Compound 250, 2-(ethoxymethyl)-7-{[2-(6-fluoropyridin-2-yl)-1H-imidazol-1-yl]methyl}-8-propyl[1,2,4]triazolo[1,5-c]pyrimidine]"
8,< 1000,"CCCc1c(Cn2ccnc2-c2ncccc2F)ncn2nc(C(=O)OC)nc12 [Compound 251, methyl 7-{[2-(3-fluoropyridin-2-yl)-1H-imidazol-1-yl]methyl}-8-propyl[1,2,4]triazolo[1,5-c]pyrimidine-2-carboxylate]"
9,< 1000,"CCCc1c(Cn2ccnc2-c2cccc(F)n2)ncn2nc(C(C)(C)O)nc12 [Compound 252, 2-(7-{[2-(6-fluoropyridin-2-yl)-1H-imidazol-1-yl]methyl}-8-propyl[1,2,4]triazolo[1,5-c]pyrimidin-2-yl)propan-2-ol]"

# Same assay, conditions: radioligand; previously determined, used in Cheng-Prusoff equation; read-out: Kd, binding dissociation constant of 3H-Ro15-1788
row,Compound,Kd [nM]
1,"CCOC(=O)c1ncn2c1CN(C)C(=O)c1cc(F)ccc1-2 [^3H-Ro15-1788, reference compound]",1
